Values belong to the compound of their own block, whether it stands above or below them.
Assays:
[1] = Agonist activity at AMPK (unknown origin); set-up: species or system Homo sapiens
[2] = biological target: Mitogen-activated protein kinase 3 (Homo sapiens, UniProt P27361); assay: Inhibition of ERK1 (unknown origin)
[3] = biological target: T1, Serine/threonine-protein kinase ULK1 (Homo sapiens, UniProt O75385); assay: Agonist activity at ULK1 (unknown origin)
T1 sequence (O75385 whole entry): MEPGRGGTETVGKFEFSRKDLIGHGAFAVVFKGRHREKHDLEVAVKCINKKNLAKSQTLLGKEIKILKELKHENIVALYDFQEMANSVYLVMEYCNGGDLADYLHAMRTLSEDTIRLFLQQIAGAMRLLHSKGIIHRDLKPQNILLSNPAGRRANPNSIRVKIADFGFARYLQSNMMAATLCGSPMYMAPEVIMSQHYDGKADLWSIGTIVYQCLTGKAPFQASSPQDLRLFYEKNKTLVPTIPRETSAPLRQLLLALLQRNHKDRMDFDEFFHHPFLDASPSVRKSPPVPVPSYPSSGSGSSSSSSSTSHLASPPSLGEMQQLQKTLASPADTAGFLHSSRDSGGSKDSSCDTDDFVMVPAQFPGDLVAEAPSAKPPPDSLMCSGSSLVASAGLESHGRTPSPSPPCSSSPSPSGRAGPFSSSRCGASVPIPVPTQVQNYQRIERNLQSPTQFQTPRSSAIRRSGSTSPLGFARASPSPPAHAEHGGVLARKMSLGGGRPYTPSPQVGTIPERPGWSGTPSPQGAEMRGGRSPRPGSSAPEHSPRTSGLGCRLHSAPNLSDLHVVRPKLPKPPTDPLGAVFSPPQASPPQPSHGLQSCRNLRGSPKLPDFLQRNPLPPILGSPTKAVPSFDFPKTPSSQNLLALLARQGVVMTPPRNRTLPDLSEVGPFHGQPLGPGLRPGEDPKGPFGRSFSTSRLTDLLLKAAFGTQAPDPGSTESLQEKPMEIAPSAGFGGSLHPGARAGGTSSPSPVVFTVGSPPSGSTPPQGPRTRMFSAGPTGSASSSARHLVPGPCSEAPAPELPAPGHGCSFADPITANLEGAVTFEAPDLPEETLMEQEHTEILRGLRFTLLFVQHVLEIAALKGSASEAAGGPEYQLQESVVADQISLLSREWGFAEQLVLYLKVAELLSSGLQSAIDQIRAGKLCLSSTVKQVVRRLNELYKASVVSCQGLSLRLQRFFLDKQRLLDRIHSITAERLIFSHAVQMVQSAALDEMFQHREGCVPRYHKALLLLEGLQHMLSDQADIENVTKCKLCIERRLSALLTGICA

[4] = Binding affinity to AMPK (unknown origin) assessed as inhibition constant; set-up: species or system Homo sapiens
[5] = biological target: T2, Serine/threonine-protein kinase ULK2 (Homo sapiens, UniProt Q8IYT8); assay: Inhibition of ULK2 (unknown origin)
T2 sequence (Q8IYT8 whole entry): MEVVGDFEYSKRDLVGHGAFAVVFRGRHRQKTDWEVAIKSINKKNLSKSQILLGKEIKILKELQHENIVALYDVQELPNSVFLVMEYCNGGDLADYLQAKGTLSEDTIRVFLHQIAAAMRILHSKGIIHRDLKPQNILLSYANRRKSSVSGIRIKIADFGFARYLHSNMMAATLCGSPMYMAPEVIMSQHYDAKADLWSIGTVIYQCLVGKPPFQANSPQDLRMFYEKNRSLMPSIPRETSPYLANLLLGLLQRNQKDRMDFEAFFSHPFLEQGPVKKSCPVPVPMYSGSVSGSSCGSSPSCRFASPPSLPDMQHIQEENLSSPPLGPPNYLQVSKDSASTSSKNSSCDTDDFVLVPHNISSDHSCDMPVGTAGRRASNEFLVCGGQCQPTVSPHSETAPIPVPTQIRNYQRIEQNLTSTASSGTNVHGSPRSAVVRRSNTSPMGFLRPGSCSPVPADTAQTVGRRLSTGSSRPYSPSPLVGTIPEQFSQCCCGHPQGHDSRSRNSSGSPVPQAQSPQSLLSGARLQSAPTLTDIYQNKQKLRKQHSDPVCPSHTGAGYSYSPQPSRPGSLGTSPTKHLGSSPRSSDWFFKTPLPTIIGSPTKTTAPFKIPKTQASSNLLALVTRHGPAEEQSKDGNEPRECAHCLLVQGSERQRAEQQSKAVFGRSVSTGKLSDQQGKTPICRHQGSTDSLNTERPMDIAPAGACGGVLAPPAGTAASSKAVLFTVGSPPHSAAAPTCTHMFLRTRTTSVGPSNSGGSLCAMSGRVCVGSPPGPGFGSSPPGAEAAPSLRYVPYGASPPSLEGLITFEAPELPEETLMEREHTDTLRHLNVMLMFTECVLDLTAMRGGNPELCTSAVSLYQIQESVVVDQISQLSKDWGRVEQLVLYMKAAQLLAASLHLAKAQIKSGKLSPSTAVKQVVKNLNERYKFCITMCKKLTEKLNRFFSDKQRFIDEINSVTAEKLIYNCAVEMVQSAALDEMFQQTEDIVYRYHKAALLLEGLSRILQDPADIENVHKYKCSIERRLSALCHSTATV

[6] = biological target: Phosphatidylinositol 4,5-bisphosphate 3-kinase catalytic subunit alpha isoform (Homo sapiens, UniProt P42336); assay: Inhibition of PI3K-p110alpha (unknown origin) extracted from baculovirus-infected Sf9 cells incubated for 1 hr by microbeta counter analysis
[7] = biological target: Phosphatidylinositol 4,5-bisphosphate 3-kinase catalytic subunit gamma isoform (Homo sapiens, UniProt P48736); assay: Inhibition of PI3K p120gamma (unknown origin)
[8] = biological target: T3, Phosphatidylinositol 4,5-bisphosphate 3-kinase catalytic subunit delta isoform (Homo sapiens, UniProt O00329); assay: Inhibition of PI3Kdelta (unknown origin)
T3 sequence (O00329 whole entry): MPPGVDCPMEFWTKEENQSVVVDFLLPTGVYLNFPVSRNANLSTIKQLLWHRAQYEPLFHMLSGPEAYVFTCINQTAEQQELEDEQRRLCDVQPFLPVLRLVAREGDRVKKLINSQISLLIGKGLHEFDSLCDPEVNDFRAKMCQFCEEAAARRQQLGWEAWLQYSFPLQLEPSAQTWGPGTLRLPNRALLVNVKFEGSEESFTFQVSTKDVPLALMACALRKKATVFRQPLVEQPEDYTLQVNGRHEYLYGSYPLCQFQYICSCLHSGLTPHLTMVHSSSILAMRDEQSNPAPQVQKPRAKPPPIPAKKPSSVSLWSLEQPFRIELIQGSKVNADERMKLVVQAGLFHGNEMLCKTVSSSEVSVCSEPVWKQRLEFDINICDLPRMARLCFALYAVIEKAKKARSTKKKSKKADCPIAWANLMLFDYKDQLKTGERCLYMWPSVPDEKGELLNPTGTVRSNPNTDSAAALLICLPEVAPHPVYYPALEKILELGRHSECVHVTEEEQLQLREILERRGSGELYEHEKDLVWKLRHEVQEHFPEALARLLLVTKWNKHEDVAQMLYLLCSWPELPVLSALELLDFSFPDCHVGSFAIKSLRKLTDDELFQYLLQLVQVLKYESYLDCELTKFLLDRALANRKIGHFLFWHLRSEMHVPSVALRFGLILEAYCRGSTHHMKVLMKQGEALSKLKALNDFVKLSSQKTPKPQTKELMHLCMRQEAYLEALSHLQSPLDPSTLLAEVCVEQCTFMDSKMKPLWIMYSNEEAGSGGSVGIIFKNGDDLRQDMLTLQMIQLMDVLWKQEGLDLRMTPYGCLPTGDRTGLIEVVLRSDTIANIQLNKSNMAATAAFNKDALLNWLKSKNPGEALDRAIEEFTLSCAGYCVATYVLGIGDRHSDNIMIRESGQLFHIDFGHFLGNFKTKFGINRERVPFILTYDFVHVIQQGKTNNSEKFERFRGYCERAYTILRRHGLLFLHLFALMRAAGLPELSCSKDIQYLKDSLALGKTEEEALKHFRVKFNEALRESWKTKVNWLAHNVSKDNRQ

Chain of Phosphatidylinositol 4,5-bisphosphate 3-kinase catalytic subunit alpha isoform (P42336 whole entry, canonical isoform): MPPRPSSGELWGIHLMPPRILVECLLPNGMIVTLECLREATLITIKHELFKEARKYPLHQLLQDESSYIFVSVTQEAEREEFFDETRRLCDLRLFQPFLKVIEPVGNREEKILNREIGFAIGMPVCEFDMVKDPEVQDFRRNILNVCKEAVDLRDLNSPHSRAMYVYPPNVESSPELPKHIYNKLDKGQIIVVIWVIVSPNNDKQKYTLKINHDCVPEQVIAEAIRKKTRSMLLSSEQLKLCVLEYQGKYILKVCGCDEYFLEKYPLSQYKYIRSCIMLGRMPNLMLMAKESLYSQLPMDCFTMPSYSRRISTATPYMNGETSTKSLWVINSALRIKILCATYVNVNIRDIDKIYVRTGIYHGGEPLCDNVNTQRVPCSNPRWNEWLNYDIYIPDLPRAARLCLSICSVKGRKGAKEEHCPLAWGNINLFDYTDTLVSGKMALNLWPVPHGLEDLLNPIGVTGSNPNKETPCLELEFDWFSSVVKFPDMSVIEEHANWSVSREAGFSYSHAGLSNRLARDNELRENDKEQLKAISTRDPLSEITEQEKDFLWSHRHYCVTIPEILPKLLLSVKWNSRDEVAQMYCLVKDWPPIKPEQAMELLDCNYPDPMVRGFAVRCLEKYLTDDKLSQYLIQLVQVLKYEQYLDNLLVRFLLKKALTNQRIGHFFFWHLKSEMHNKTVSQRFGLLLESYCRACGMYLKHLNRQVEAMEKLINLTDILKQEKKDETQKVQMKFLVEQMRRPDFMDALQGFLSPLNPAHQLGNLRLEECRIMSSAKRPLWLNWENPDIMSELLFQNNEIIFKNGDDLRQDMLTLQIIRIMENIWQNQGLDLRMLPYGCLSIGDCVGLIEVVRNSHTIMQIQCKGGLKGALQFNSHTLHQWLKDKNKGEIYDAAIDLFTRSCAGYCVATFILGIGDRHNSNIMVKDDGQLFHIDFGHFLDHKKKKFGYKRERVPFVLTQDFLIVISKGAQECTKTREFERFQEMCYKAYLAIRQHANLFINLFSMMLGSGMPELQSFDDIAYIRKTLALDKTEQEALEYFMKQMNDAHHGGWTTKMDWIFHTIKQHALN
Chain of Phosphatidylinositol 4,5-bisphosphate 3-kinase catalytic subunit gamma isoform (P48736 whole entry, canonical isoform): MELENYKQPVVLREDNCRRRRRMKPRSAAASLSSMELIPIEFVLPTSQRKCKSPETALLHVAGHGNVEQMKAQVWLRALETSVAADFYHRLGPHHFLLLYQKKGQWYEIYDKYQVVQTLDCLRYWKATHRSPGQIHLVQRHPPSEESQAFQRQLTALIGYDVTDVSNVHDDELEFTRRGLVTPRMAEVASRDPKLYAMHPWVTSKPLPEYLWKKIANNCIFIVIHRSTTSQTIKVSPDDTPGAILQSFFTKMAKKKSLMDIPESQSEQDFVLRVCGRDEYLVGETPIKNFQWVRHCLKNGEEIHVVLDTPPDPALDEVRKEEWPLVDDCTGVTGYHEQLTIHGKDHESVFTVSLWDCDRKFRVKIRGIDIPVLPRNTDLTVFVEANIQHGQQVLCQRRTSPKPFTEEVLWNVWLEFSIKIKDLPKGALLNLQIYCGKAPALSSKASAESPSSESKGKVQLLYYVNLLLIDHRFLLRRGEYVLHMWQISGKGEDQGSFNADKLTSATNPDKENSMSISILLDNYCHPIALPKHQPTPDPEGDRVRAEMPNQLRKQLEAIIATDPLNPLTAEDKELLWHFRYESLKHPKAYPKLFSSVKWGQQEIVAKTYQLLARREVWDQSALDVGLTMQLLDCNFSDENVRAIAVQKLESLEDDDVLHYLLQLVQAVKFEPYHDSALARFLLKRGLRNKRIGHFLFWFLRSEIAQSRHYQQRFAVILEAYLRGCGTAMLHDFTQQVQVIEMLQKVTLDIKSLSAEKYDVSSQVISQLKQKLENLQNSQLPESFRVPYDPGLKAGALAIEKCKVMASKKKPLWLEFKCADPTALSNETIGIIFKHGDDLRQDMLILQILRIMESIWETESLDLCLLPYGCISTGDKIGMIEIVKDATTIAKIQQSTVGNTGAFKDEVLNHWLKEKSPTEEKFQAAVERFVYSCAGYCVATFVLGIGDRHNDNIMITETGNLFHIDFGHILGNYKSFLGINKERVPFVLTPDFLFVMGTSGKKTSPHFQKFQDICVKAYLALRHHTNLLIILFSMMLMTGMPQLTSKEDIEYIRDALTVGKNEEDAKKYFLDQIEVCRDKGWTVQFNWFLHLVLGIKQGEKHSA
Chain of Mitogen-activated protein kinase 3 (P27361 whole entry): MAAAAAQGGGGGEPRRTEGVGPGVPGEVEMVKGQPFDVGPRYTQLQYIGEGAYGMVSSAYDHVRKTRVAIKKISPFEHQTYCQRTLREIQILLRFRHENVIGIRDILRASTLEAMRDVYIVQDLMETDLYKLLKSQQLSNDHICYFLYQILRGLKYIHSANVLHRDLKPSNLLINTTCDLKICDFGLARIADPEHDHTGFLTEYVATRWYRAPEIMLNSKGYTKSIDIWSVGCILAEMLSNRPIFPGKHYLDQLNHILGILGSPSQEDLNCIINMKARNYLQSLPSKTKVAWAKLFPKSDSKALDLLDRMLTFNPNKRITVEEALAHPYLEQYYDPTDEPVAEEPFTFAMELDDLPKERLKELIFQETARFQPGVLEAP

EC50 [1]: 38000 nM
Structure (SMILES): N#Cc1c(O)c2c(-c3ccccc3)csc2[nH]c1=O

EC50 [1]: 800 nM
Structure (SMILES): N#Cc1c(O)c2c(-c3ccc(-c4ccccc4O)cc3)csc2[nH]c1=O

IC50 [2]: 87 nM
Structure (SMILES): COc1ccc([C@H]2OC[C@H]3[C@@H]2CO[C@@H]3c2cc(OC)c(OC)c(OC)c2)cc1OC

EC50 [3]: 24.1 nM
Structure (SMILES): O=C(Nc1ccc(F)cc1F)[C@H](NC(=S)Nc1cc(C(F)(F)F)cc(C(F)(F)F)c1)c1ccccc1

Ki [4]: 109 nM
Structure (SMILES): c1cc(-c2cnn3cc(-c4ccc(OCCN5CCCCC5)cc4)cnc23)ccn1 [DORSOMORPHIN]

IC50 [5]: 9 nM
Structure (SMILES): CCc1cc(N2CCN(C)CC2)ccc1Nc1ncc(C(F)(F)F)c(NCCCN2CCOCCC2=O)n1 [INLEXISERTIB]

IC50 [6]: 1400 nM
Structure (SMILES): CC(C)NC[C@@H](C(=O)N1CCN(c2ncnc3c2[C@H](C)C[C@H]3O)CC1)c1ccc(Cl)cc1 [IPATASERTIB]

IC50 [6]: 0.1 nM | IC50 [7]: 1 nM | IC50 [8]: 2.9 nM
Structure (SMILES): C=CCN(/C=C1/C(=O)O[C@H](COC)[C@@]2(C)C1=C(O)C(=O)C1=C2[C@H](OC(C)=O)C[C@]2(C)C(=O)CC[C@@H]12)CC=C [SONOLISIB]

IC50 [7]: 0.91 nM
Structure (SMILES): Cc1nc(-c2cn3c(n2)-c2ccc(-c4cnn(C(C)(C)C(N)=O)c4)cc2OCC3)n(C(C)C)n1 [TASELISIB]
